The text below walks through data of patent publication US6291405A, “Glycol based drilling fluid” (M-I LLC, priority 1998, dated 2001).

Where only a bound is given, the exact number is not on record here.

Series [1] is described as follows: Viscosity properties of glycols, Fann 35A viscometer readings. The series is classed as physicochemical. As to the method:
Readings were taken on a Fann 35A viscometer at 600 and 300 rpm both at room temperature and 120° F.

For series [2] the following is noted: cited from earlier work; for toxicity ranking: based on laboratory test data, direct ingestion; for LD50: single-dose oral.
The nature of series [3]: Gumbo shale sticking test, diethylene glycol/water plus 10% GMO. Conditions: in words. On the procedure: This test was conducted using the test method described in example 2, except each test sample contained 10% glycerol monooleate (GMO) as the antisticking agent.

As for `CC(CO)CO` [2-Methyl Propyl 1,3-Diol, reference compound], the “Fann 35A viscometer reading” value in series [1] (120° F, 300 rpm) is reported as 42; in series [1] (120° F, 600 rpm), 80; in series [1] (Room Temperature, 300 rpm) it was 216; in series [1] (Room Temperature, 600 rpm), greater than 300.

As to `OCCOCCO` [Diethylene Glycol, diethylene glycol], in series [2], the toxicity ranking entry is “followed by diethylene, triethylene, and dipropylene glycols”; the LD50 is 16-21 gm/KG.

`OCCO` [Ethylene Glycol, ethylene glycol]: in series [2], the toxicity ranking result was “the most toxic” and the LD50 was 6-12 gm/KG.

Turning to `OCC(O)CO` [Glycerine, reference compound], the “Fann 35A viscometer reading” value in series [1] (120° F, 300 rpm) is 135; in series [1] (120° F, 600 rpm), 262; in series [1] (Room Temperature, 300 rpm), greater than 300; in series [1] (Room Temperature, 600 rpm) it was greater than 300.

For the molecule `CC(O)CO` (centres unmarked) [Propylene Glycol, propylene glycol], the “Fann 35A viscometer reading” value in series [1] (120° F, 300 rpm) was 15; in series [1] (120° F, 600 rpm), 28; in series [1] (Room Temperature, 300 rpm), 47; in series [1] (Room Temperature, 600 rpm), 92. Also, the toxicity ranking result in series [2] was “the least toxic”. Moreover, the LD50 in series [2] is listed as 21-34 gm/KG.

As to `OCCOCCOCCO` [Triethylene Glycol, triethylene glycol], the “Fann 35A viscometer reading” value in series [1] (120° F, 300 rpm) is reported as 16; in series [1] (120° F, 600 rpm) it was 31; in series [1] (Room Temperature, 300 rpm), 42; in series [1] (Room Temperature, 600 rpm) it was 83. In series [2], the toxicity ranking result is “followed by diethylene, triethylene, and dipropylene glycols”. Besides, in series [2], the LD50 is on record as 16-22 gm/KG.

In the case of `CC(O)COC(C)COC(C)CO` (centres unmarked) [Tripropylene Glycol, tripropylene glycol], the “Fann 35A viscometer reading” value in series [1] (120° F, 300 rpm) was determined as 18; in series [1] (120° F, 600 rpm), 34; in series [1] (Room Temperature, 300 rpm) it was 59; in series [1] (Room Temperature, 600 rpm), 116. The toxicity ranking result in series [2] was “the most toxic”.

On to `CCCCCCCC/C=C\CCCCCCCC(=O)OCC(O)CO` (centres unmarked) [glycerol monooleate], for which the antisticking properties entry in series [3] is recorded as “improved the antisticking properties of the diethylene glycol fluids”.

Regarding butylene glycol, in series [2], the toxicity ranking result is given as “the least toxic” and the LD50 was 23-30 gm/KG.

For dipropylene glycol, the “Fann 35A viscometer reading” value in series [1] (120° F, 300 rpm) is listed as 21; in series [1] (120° F, 600 rpm), 41; in series [1] (Room Temperature, 300 rpm), 82; in series [1] (Room Temperature, 600 rpm), 163. In addition, the toxicity ranking result in series [2] is “followed by diethylene, triethylene, and dipropylene glycols”. Further, the LD50 in series [2] is on record as ~ 15 gm/KG.
